Common to all, as to type: biochemical
Assay [1] addresses human TYK2 catalytic kinase (JH1) domain (Homo sapiens (Human), UniProt P29597). The assay is described as follows: ADP-Glo Kinase Assay, recombinant TYK2 catalytic kinase (JH1) domain. To be noted: recombinant JH1 domain 2 nM, 10 μM ATP, JAK3-974 peptide, mean, read-out: TYK2 biochem IC50 (nM) Mean. A digest of the protocol: (§1)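 Enzyme levels: JAK1 4 nM, JAK2 0.2 nM, JAK3 0.3 nM, TYK2 2 nM. Peptide substrate at 50 μM. Reactions ran 100 minutes; ADP formed was converted to luciferase luminescence after ATP depletion. Compounds tested from 10 μM or 1 μM top, 11-point 3-fold dilutions; IC50 from 4-parameter logistic fit of normalized percent activity.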
(In general: ADP-Glo turns the ADP formed in a reaction into a luminescent signal.)

Assay [2] addresses human JAK1 catalytic kinase (JH1) domain (Homo sapiens (Human), UniProt P23458). Kind of assay: ADP-Glo Kinase Assay, recombinant JAK1 catalytic kinase (JH1) domain. To be noted: recombinant JH1 domain 4 nM, 35 μM ATP, JAK3-342 peptide, mean, read-out: JAK1 biochem IC50 (nM) Mean. A digest of the protocol:
as §1

Assay [3] concerns the target human JAK2 catalytic kinase (JH1) domain (Homo sapiens (Human), UniProt O60674). Kind of assay: ADP-Glo Kinase Assay, recombinant JAK2 catalytic kinase (JH1) domain. Conditions: recombinant JH1 domain 0.2 nM, 15 μM ATP, JAK3-974 peptide, mean, read-out: JAK2 biochem IC50 (nM) Mean. A digest of the protocol: as §1
The target of assay [4] is human JAK3 catalytic kinase (JH1) domain (Homo sapiens (Human), UniProt P52333). The assay is described as follows: ADP-Glo Kinase Assay, recombinant JAK3 catalytic kinase (JH1) domain. To be noted: recombinant JH1 domain 0.3 nM, 4 μM ATP, JAK3-974 peptide, mean, read-out: JAK3 biochem IC50 (nM) Mean. A digest of the protocol:
as §1

Structures are written as SMILES. Where a name gives a salt, the structure may show the parent alone.

Chain of human JAK2 catalytic kinase (JH1) domain (O60674 849-1124): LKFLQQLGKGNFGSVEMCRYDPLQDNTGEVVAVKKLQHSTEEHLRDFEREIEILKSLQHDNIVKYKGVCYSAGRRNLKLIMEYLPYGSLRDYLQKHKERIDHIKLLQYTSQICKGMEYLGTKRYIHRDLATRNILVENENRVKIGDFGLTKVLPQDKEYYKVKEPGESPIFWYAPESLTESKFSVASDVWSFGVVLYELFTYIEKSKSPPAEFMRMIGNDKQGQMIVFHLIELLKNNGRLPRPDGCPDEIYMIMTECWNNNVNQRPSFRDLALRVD
Chain of human TYK2 catalytic kinase (JH1) domain (P29597 897-1176): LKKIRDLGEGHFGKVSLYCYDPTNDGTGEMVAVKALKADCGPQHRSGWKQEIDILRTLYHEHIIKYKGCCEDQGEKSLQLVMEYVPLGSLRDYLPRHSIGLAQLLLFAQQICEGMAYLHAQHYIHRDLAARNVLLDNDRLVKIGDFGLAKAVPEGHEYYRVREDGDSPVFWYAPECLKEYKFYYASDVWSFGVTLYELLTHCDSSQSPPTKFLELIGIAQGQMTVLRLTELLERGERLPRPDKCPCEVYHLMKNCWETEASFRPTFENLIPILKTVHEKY
Chain of human JAK1 catalytic kinase (JH1) domain (P23458 875-1153): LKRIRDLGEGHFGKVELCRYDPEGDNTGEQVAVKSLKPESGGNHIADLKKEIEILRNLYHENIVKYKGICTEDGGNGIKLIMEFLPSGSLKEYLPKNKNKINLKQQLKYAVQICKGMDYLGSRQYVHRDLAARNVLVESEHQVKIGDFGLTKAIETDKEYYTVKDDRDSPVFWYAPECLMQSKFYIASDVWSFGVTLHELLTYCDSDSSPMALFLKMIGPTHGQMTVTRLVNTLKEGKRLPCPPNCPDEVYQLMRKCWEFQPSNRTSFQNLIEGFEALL
Chain of human JAK3 catalytic kinase (JH1) domain (P52333 822-1111): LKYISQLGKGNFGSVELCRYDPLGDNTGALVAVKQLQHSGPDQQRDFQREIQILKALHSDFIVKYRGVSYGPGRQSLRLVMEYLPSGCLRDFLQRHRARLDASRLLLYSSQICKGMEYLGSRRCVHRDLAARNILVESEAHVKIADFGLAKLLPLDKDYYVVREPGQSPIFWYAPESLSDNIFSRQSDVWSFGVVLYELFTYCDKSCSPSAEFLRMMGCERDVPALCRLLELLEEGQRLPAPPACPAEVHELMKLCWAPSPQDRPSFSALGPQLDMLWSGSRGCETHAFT

As for `Cc1cc(-c2cc3c(N4CC5CCC(C4)N5C(=O)[C@@H]4C[C@H]4F)ncnn3c2)ccn1` [Example 91, ((1S,2R)-2-fluorocyclopropyl)(3-(6-(2-methylpyridin-4-yl)pyrrolo[2,1-f][1,2,4]triazin-4-yl)-3,8-diazabicyclo[3.2.1]octan-8-yl)methanone], the IC50 – broadly, the concentration needed to halve the response being measured – turned out to be 21.8 nM in assay [1], 316 nM in assay [2], 624 nM in assay [3] and 4500 nM in assay [4].
Regarding `Cc1cc(-c2cc3c(N4CC5CCC(C4)N5C(=O)[C@@H]4C[C@H]4F)ccnn3c2)on1` [Example 173], the IC50 in assay [1] came out at 2.4 nM; in assay [2] it was 81 nM; in assay [3] it was 37 nM; in assay [4], 793 nM.
In the same order, the values of `Cn1cc(-c2nc3c(N4CC5CCC(C4)N5C(=O)[C@@H]4CC4(F)F)ccnc3[nH]2)cn1` [Example 201, ((S)-2,2-difluorocyclopropyl)(3-(2-(1-methyl-1H-pyrazol-4-yl)-3H-imidazo[4,5-b]pyridin-7-yl)-3,8-diazabicyclo[3.2.1]octan-8-yl)methanone] are 1.5 nM, 14 nM, 9 nM and 164 nM.
For `Cc1c(-c2cnn(C)c2)[nH]c2nccc(N3CC4CCC(C3)N4C(=O)[C@@H]3C[C@H]3F)c12` [Example 249, ((1S,2R)-2-fluorocyclopropyl)(3-(3-methyl-2-(1-methyl-1H-pyrazol-4-yl)-1H-pyrrolo[2,3-b]pyridin-4-yl)-3,8-diazabicyclo[3.2.1]octan-8-yl)methanone], the IC50 in assay [1] turned out to be 19 nM; in assay [2], 1240 nM; in assay [3] it was 251 nM; in assay [4], 2810 nM.
The like results for `C[C@]1(F)C[C@H](C(=O)N2C3CCC2CN(c2ncnn4cc(-c5cnn(C(F)F)c5)cc24)C3)C1` [Example 34, (3-(6-(1-(difluoromethyl)-1H-pyrazol-4-yl)pyrrolo[2,1-f][1,2,4]triazin-4-yl)-3,8-diazabicyclo[3.2.1]octan-8-yl)((1r,3r)-3-fluoro-3-methylcyclobutyl)methanone trifluoroacetate] were, in that order, 510 nM, 3190 nM, 7520 nM and 9510 nM.
In the same order, the values of `O=C([C@@H]1C[C@H]1F)N1C2CCC1CN(c1ccnn3cc(-c4ccnc(C(F)F)c4)cc13)C2` [Example 101, (3-(6-(2-(difluoromethyl)pyridin-4-yl)pyrrolo[1,2-b]pyridazin-4-yl)-3,8-diazabicyclo[3.2.1]octan-8-yl)((1S,2R)-2-fluorocyclopropyl)methanone] are 1.4 nM, 22 nM, 27 nM and 541 nM.
The like results for `Cn1cc(-c2cc3c(N4CC5CCC(C4)N5C(=O)[C@H]4C[C@H]4C#N)ncnn3c2)cn1` (single isomer, unassigned) [Example 85] were, in that order, 751 nM, 3310 nM, 10000 nM and 4450 nM.
As to `N#Cc1ccc(-c2cc3c(N4CC5CCC(C4)N5C(=O)[C@@H]4C[C@H]4F)ccnn3c2)cn1` [Example 103, 5-(4-(8-((1S,2R)-2-fluorocyclopropane-1-carbonyl)-3,8-diazabicyclo[3.2.1]octan-3-yl)pyrrolo[1,2-b]pyridazin-6-yl)picolinonitrile], the IC50 in assay [1] came to 5.2 nM; in assay [2], 77 nM; in assay [3], 60 nM; in assay [4], 913 nM.
The like results for `Cc1cc(-c2cc3c(N4CC5CCC(C4)N5C(=O)[C@@H]4C[C@H]4F)ncnc3[nH]2)ccn1` [Example 230, ((1S,2R)-2-fluorocyclopropyl)(3-(6-(2-methylpyridin-4-yl)-7H-pyrrolo[2,3-d]pyrimidin-4-yl)-3,8-diazabicyclo[3.2.1]octan-8-yl)methanone] were, in that order, 8.2 nM, 91 nM, 218 nM and 742 nM.
The like results for `Cn1cc(-c2cc3c(N4CC5CCC(C4)N5C(=O)[C@@H]4CC4(F)F)ncnn3c2)cn1` [Example 83, ((S)-2,2-difluorocyclopropyl)(3-(6-(1-methyl-1H-pyrazol-4-yl)pyrrolo[2,1-f][1,2,4]triazin-4-yl)-3,8-diazabicyclo[3.2.1]octan-8-yl)methanone] were, in that order, 333 nM, 652 nM, 5730 nM and 1640 nM.
The like results for `COc1nn(C)cc1-c1cc2c(N3CC4CCC(C3)N4C(=O)[C@@H]3C[C@H]3F)ccnn2c1` [Example 134, ((1S,2R)-2-fluorocyclopropyl)(3-(6-(3-methoxy-1-methyl-1H-pyrazol-4-yl)pyrrolo[1,2-b]pyridazin-4-yl)-3,8-diazabicyclo[3.2.1]octan-8-yl)methanone] were, in that order, 1.4 nM, 114 nM, 24 nM and 588 nM.
Turning to `N#C[C@@H]1C[C@@H]1C(=O)N1C2CCC1CN(c1ncnn3cc(-c4cnn(C(F)F)c4)cc13)C2` (racemic) [Example 47, Rac-(1R,2S)-2-(3-(6-(1-(difluoromethyl)-1H-pyrazol-4-yl)pyrrolo[2,1-f][1,2,4]triazin-4-yl)-3,8-diazabicyclo[3.2.1]octane-8-carbonyl)cyclopropane-1-carbonitrile], the IC50 came out at 783 nM in assay [1], 2530 nM in assay [2], 8360 nM in assay [3] and 6070 nM in assay [4].
In the same order, the values of `N#Cc1cc(-c2cc3c(N4CC5CCC(C4)N5C(=O)[C@@H]4C[C@H]4F)ccnn3c2)ccn1` [Example 104, 4-(4-(8-((1S,2R)-2-fluorocyclopropane-1-carbonyl)-3,8-diazabicyclo[3.2.1]octan-3-yl)pyrrolo[1,2-b]pyridazin-6-yl)picolinonitrile] are 3.4 nM, 46 nM, 47 nM and 886 nM.
On to `N#Cc1cc(-c2nc3c(N4CC5CCC(C4)N5C(=O)[C@@H]4C[C@H]4F)ccnc3[nH]2)ccn1` [Example 204, 4-(7-(8-((1S,2R)-2-fluorocyclopropane-1-carbonyl)-3,8-diazabicyclo[3.2.1]octan-3-yl)-3H-imidazo[4,5-b]pyridin-2-yl)picolinonitrile], for which the IC50 in assay [1] worked out at 12 nM; in assay [2], 36 nM; in assay [3], 49 nM; in assay [4], 716 nM.
The like results for `Cn1cc(-c2cc3c(N4CC5CCC(C4)N5C(=O)[C@@H]4C[C@H]4F)ncnn3c2)cn1` [Example 2, ((1S,2R)-2-fluorocyclopropyl)(3-(6-(1-methyl-1H-pyrazol-4-yl)pyrrolo[2,1-f][1,2,4]triazin-4-yl)-3,8-diazabicyclo[3.2.1]octan-8-yl)methanone] were, in that order, 4.7 nM, 324 nM, 292 nM and 820 nM.
The like results for `O=C([C@H]1C[C@@H](C(F)(F)F)C1)N1C2CCC1CN(c1ncnn3cc(-c4cnn(C(F)F)c4)cc13)C2` [Example 29, (3-(6-(1-(difluoromethyl)-1H-pyrazol-4-yl)pyrrolo[2,1-f][1,2,4]triazin-4-yl)-3,8-diazabicyclo[3.2.1]octan-8-yl)((1s,3s)-3-(trifluoromethyl)cyclobutyl)methanone] were, in that order, 238 nM, 774 nM, 4250 nM and 7470 nM.
As for `Cn1cc(-c2cc3c(N4CC5CCC(C4)N5C(=O)C4CC4)ccnc3[nH]2)cn1` [Example 236, cyclopropyl(3-(2-(1-methyl-1H-pyrazol-4-yl)-1H-pyrrolo[2,3-b]pyridin-4-yl)-3,8-diazabicyclo[3.2.1]octan-8-yl)methanone], the IC50 in assay [1] was found to be 3.8 nM; in assay [2], 145 nM; in assay [3] it was 99 nM; in assay [4], 253 nM.
The like results for `O=C([C@@H]1C[C@H]1F)N1C2CCC1CN(c1ncnn3cc(-c4ccnc(F)c4)cc13)C2` [Example 164] were, in that order, 48.8 nM, 447 nM, 1300 nM and 7250 nM.
In the same order, the values of `COc1ccc(-c2cc3c(N4CC5CCC(C4)N5C(=O)C4CC4)ncnn3c2)cn1` [Example 178] are 719 nM, 2020 nM, 10000 nM and 6270 nM.
On to `O=C(C1CC1)N1C2CCC1CN(c1ncnn3cc(-c4cnn(C(F)(F)F)c4)cc13)C2` [Example 154], for which the IC50 in assay [1] came to 490 nM; in assay [2], 2950 nM; in assay [3] it was 10000 nM; in assay [4], 10000 nM.
In the case of `O=C([C@@H]1C[C@H]1F)N1C2CCC1CN(c1ncnc3[nH]c(-c4cnn(C(F)F)c4)cc13)C2` [Example 221, (3-(6-(1-(difluoromethyl)-1H-pyrazol-4-yl)-7H-pyrrolo[2,3-d]pyrimidin-4-yl)-3,8-diazabicyclo[3.2.1]octan-8-yl)((1S,2R)-2-fluorocyclopropyl)methanone], the IC50 in assay [1] amounted to 2.8 nM; in assay [2], 82 nM; in assay [3] it was 73 nM; in assay [4], 461 nM.

(Values after patent publication US20240360157A1, “TYK2 INHIBITORS” (BIOGEN MA INC., priority 2021, published 2024).)
